Test results as given in paper PMC8047011, “Enantiomers of 2-methylglutamate and 2-methylglutamine selectively impact mouse brain metabolism and behavior” (Scientific Reports, 2021).

How the values were obtained:
[1] = system: mouse cerebral synaptosomes; assay: Potassium-induced neurotransmitter release assay; assay type: cell-based; conditions: preincubated with 100 μM substrate 15 min 37 °C; high-potassium KRP buffer
Description: To each tube, 2.5 μL of a test compound solution (final concentration 100 μM) in Buffer KRP or Buffer KRP alone were added. Samples were incubated for 15 min at 37 °C, briefly chilled on ice, and then immediately centrifuged and washed twice with Buffer KRP. The resulting pellets were then resuspended in either Buffer KRP (500 μL) or Buffer K-KRP (500 μL). Samples were immediately centrifuged or incubated for 5, 10 or 15 min at 37 °C, then centrifuged and washed with Buffer KRP. Resulting pellets were resuspended in 400 μL of 60% ACN containing 2.5 μM Glu-d5 and 2.5 μM Gln-d5 as internal standards.

[2] = system: mouse cerebral synaptosomes; assay: Synaptosomal neurotransmitter uptake assay; assay type: cell-based; conditions: 10 μM substrate, 37 °C
Description: Mouse cerebral synaptosomes were prepared according to published methods. See Supplementary Methods for details. 500 μL aliquots of the synaptosome suspension were transferred to pre-chilled microcentrifuge tubes for experiments. Centrifugations were at 8000g for 4 min at 4 °C, unless stated otherwise, and all samples were stored at − 80 °C.
To each tube, 5 μL of a test compound solution (final concentration 10 μM) in Buffer KRP or Buffer KRP alone were added. Samples were incubated at 4 °C or 37 °C for 1, 10, or 30 min and then immediately centrifuged and washed twice by resuspension–centrifugation with Buffer S (0.5 mL). Resulting pellets were resuspended in 170 μL of 0.1% aqueous formic acid and mixed with 330 μL of ACN.
Buffer S (4 mL, × 1) and Buffer KRP (2 mL, × 3). The resulting pellet was resuspended in 3 mL of Buffer KRP and filtered on Ultrafree-CL 5 μm PVDF centrifugal device (1,000g for 4 min at 4 °C). The filtrate was diluted to 15 mL with ice cold Buffer KRP and kept on ice. The synaptosome preparation was used immediately in the following experiments.
Synaptosomal neurotransmitter uptake assay
96-well plate experiments: 250 μL aliquots of the synaptosome suspension were transferred to two 0.8-mL 96 well plates, one on ice (0 °C samples only) and one in a thermoblock (37 °C samples only), and equilibrated for 10 min. 5 μL of a test compound (0.5 mM; final concentration: 10 μM) in Buffer KRP or Buffer KRP blank were added 10, 20 or 30 min before the incubation termination. “0 min” samples were prepared by placing the test compound solution in a separate pre-chilled V-shape bottom 2-mL 96 well plate; at the end of incubation 200 μL aliquots of all samples were transferred to the 2-mL 96 well plate and centrifuged (2,500g for 15 min at 4 °C) immediately. The resulting pellets were rinsed with Buffer KRP, followed by centrifugation, twice, then resuspended in 200 μL of 60% ACN containing 2.5 μM Glu-d5 as internal standard and stored at –80 °C until analysis. […]

[3] = target: human glutamine synthetase (Homo sapiens, UniProt P15104); design: method as in PMID 5320388; conditions: identical conditions with L-Glu; cited from earlier work
Chain of human glutamine synthetase (P15104 whole entry): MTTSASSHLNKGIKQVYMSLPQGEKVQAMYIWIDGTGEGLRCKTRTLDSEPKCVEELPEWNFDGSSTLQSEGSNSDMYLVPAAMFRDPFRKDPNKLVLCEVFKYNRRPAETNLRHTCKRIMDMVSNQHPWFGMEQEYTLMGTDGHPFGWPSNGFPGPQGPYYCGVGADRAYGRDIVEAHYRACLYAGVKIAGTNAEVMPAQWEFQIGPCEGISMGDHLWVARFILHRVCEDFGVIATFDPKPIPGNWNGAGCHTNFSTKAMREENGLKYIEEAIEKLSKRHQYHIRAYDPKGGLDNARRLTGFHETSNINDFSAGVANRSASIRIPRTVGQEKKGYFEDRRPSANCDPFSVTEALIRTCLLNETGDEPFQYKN

[4] = system: mouse cerebral synaptosomes; assay: Metabolism in synaptosomes (GABA shunt, glutamate-glutamine cycle); assay type: in vitro ADME; conditions: synaptosomes preloaded with 100 μM substrate
Description: (§1) To each tube, a 5 μL aliquot of a test compound solution (final concentration 100 μM) in Buffer KRP or Buffer KRP alone were added. The samples were incubated for 15 min at 37 °C, briefly chilled on ice, and then immediately centrifuged and washed twice by resuspension-centrifugation with Buffer S (0.5 mL). The pellets were then resuspended in Buffer KRP (500 μL). Samples were then immediately centrifuged or incubated for 5, 10, 15, 20, 25 or 30 min at 37 °C and then centrifuged and washed by resuspension-centrifugation with Buffer S (0.5 mL). Resulting pellets were resuspended in 170 μL of 0.1% aqueous formic acid, mixed with 330 μL of ACN. To each tube, 5 μL of 2MeGlu solution (final concentration 100 μM) in Buffer KRP or Buffer KRP alone were added. The samples were incubated for 15 min at 37 °C, briefly chilled on ice, and then immediately centrifuged and washed twice by resuspension-centrifugation with Buffer S (0.5 mL). The pellets were then resuspended in Buffer KRP (200 μL). Samples were then kept on ice or incubated for 10, 20, 30, 40 or 50 min at 37 °C and then chilled on ice. Then all samples were centrifuged, 200 μL of supernatants were collected, and the pellets were suspended in 200 μL of 80% ACN. Supernatants and pellet suspensions were diluted with 250 μL of ACN and 50 μL of 10 μM d[…] in water as internal standard.

[5] = as above; assay type: in vitro ADME, mouse; conditions: mouse, mouse cerebral synaptosomes; synaptosomes preloaded with 100 μM substrate, 37 °C; estimated; read-out: Synaptosomal concentration half life
Description: as §1

human glutaminase GLS1 = target: T1, human glutaminase GLS1 (Homo sapiens, UniProt O94925); assay: Catalysis of 2MeGln hydrolysis by GLS1 glutaminase; assay type: biochemical
T1 sequence (O94925 55-669): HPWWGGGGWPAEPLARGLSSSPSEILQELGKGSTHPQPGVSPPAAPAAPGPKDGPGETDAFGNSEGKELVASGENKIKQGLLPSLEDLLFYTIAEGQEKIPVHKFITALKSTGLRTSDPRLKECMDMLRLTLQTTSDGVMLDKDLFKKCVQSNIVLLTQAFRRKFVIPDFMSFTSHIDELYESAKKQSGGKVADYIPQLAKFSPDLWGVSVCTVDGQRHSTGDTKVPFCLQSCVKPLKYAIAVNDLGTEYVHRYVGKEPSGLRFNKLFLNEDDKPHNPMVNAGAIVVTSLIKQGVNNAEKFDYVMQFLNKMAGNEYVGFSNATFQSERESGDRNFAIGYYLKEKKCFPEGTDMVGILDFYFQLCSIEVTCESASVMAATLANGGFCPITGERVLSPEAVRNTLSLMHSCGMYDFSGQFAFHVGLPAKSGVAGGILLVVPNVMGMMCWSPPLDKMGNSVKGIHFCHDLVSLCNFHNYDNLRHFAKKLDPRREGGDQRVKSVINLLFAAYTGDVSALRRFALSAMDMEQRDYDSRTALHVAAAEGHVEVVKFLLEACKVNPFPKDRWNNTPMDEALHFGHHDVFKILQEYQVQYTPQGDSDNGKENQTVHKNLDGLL
Description: The procedure was adapted from an existing protocol. To a reaction mixture in a 1.5 mL microcentrifuge tube containing 10 mM rac-2MeGln or L-Gln-^13C2 in 100 mM phosphate pH 7.4 buffer made in 20% atom ^18O water, recombinant GLS1 (final concentration: 5 ng/mL) was added. The tubes were incubated in a preheated thermomixer at 37 °C and periodically shaken at 600 rpm (30 s on, 30 s off). 5 μL aliquots were collected in triplicate every 5 min and immediately diluted with 195 μL of cold 60% ACN containing 10 μM Glu-d5 and Gln-d5 as internal standards in a 96 well plate. After collecting all samples, the plate was shaken at 1000 rpm for 5 min at room temperature, and then stored at − 80 °C. Before analysis the plate was thawed and 10 μL aliquots of the extracted reaction mixtures were diluted with 190 μL of 90% acetonitrile.
The quantification of the newly formed 2MeGlu in the presence of the preexisting trace amounts was performed in the following way. Peak area ratio of Glu-^13C2 to Glu-^13C2^18O was calculated in all samples containing Glu-^13C2. The mean ratio value was then applied to calculate the hypothetical peak area of the newly formed 2MeGlu based on the directly measured 2MeGlu-^18O peak area. The ratio of the newly formed 2MeGlu peak area and the total 2MeGlu peak area was applied to calculate the concentration of the newly formed 2MeGlu from the total 2MeGlu concentration determined directly using the calibration curve.

[6] = system: murine primary cerebral cortical neuron cultures; assay: Neuronal transport and metabolism of 2MeGln; assay type: cell-based, mouse; conditions: 1 mM substrate, 2 h, 37 °C; data not shown
Description: The procedure was adapted from an existing protocol. Wild-type (WT) C57BL/6J mating pairs were housed according to Stanford IACUC protocol. On day P0, pups were euthanized and brains dissected in cold HBSS (without Ca^2+ or Mg^2+). The forebrain was microdissected to isolate the cortex and hippocampus. These brain regions were minced in cold HBSS before trypsinization at 37 °C for 9 min, followed by trituration, through 2 glass polished Pasteur pipettes. The resulting cell suspension was passed through a 100 μm filter to isolate single cells which were sedimented at 250g for 5 min. The cell pellet was then resuspended in complete Neural Basal Media (Neural Basal Media + Glutamax + B-27 Plus Supplement + Pen/Strep) + 10%FBS, counted using a hemocytometer and plated at 1 × 10^6 cells per mL into a 24 well plate (1 mL per well) coated with poly-D-lysine and laminin. Cultures were grown at 37 °C/5% CO2 in a tissue culture incubator. Media was exchanged 50% on day 1 in vitro (1DIV) with fresh complete Neural Basal Media without FBS and thereafter every other day with the same media. On 3DIV the media was spiked with 2 μM AraC to limit glial growth. On 10DIV the media was completely replaced with 500 μL Neural Basal Media containing B-27 Plus Supplement + Pen/Strep without added Glutamax but instead containing 1 mM substrate at 37 °C for 2 h. […]

[7] = system: primary murine cerebral astrocytes; assay: Astrocyte transport and metabolism of 2MeGlu; assay type: cell-based, mouse; conditions: 1 mM substrate, 2 h, 37 °C
Description: Primary astrocytes from C57Bl/6 mouse brain were cultured in complete astrocyte growth medium at 37 °C at 5% CO2 on 96 well plates. Cells were exposed to 1 mM compound in 100 μL medium for 2 h at 37 °C. Supernatants were collected, centrifuged at 2500g for 10 min at 4 °C. 10 μL aliquots were diluted with 190 μL 60% ACN containing 10 μM Glu-d5 and Gln-d5. Cells were quickly washed with 250 μL cold PBS twice and suspended in 200 μL of 60% ACN containing 10 μM Glu-d5 and Gln-d5. All samples were shaken at 1000 rpm for 5 min and then stored at – 80 °C.

For `CC(N)CCC(=O)O` (racemic) [rac-4APA, 4-aminopentanoic acid], the “Potassium-induced release from preloaded synaptosomes” value [1] was “exhibited high potassium concentration-dependent release” and the Transport into synaptosomes [2] was “transported into synaptosomes”.
For `CC(N)(CCC(=O)O)C(=O)O` (racemic) [rac-2MeGlu, 2-methylglutamate], the “Inorganic phosphate released with GS and ATP relative to L-Glu” value [3] is listed as 50%, the “Metabolism along the GABA shunt in synaptosomes” value [4] is listed as “not associated with the concurrent appearance of 4APA or any other 2Me analogue within the GABA shunt” and the half-life at 100 μM [5] is listed as 21 min.
For `C[C@](N)(CCC(N)=O)C(=O)O` [(S)-2MeGln, (S)-2-methylglutamine], the “Substrate for GLS1” value (human glutaminase GLS1) was “substrates of GS and GLS1, respectively”.
With `NC(=O)CC[13C@H](N)[13C](=O)O` [L-[1,2-^13C]Gln] the “Intracellular [1,2-13C]Gln relative to 2MeGln in neurons” value [6] was “twofold lower” and the “Intracellular [1,2-13C]Glu relative to 2MeGlu in neurons” value [6] was “over fivefold lower”.
For `N[C@@H](CCC(=O)O)C(=O)O` [L-[1,2-^13C]Glu, reference compound], the “Extracellular concentration of amide product (2MeGln or [1,2-13C]Gln), astrocyte cultures” value [7] was 5.0 nmol/well and the “Intracellular concentration of amide product (2MeGln or [1,2-13C]Gln) in astrocytes” value [7] was 0.26 nmol/well.
For `NC(=O)CC[C@H](N)C(=O)O` [Gln, L-glutamine, reference compound], the “Apparent reaction rate of GLS1 hydrolysis” value (human glutaminase GLS1; 10 mM substrate, 5 ng/mL enzyme, phosphate pH 7.4) was 65 µM/min.
